Data taken from ChEMBL document CHEMBL1201862, “PubChem BioAssay data set” (2004).
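Results reflect a 48-hour exposure of cells in 96-well plates to compound at five concentrations. GI50 marks 50% less growth.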 Activity calls are given as the source filed them. Rule as the data show it: active = GI50 up to about 1.1 µM and inactive = higher.

Columns and labels:
Test in all cases: DTP human tumour cell line panel, 48 h
K562 = system: K562
CAKI-1 = system: CAKI-1
TK-10 = system: TK-10
SN12C = system: SN12C
SK-MEL-2 = system: SK-MEL-2
IGROV-1 = system: IGROV-1
MOLT-4 = system: MOLT-4
LOX IMVI = system: LOX IMVI
CCRF-CEM = system: CCRF-CEM
786-0 = system: 786-0
NCI-H460 = system: NCI-H460
RPMI-8226 = system: RPMI-8226
UO-31 = system: UO-31
SF-539 = system: SF-539
A549 = system: A549
HT-29 = system: HT-29
SK-OV-3 = system: SK-OV-3

Measured: GI50

COc1ccc2c3c([nH]c2c1[N+](=O)[O-])C(C)N(C(=O)/C=C/c1ccccc1)CC3 (stereo not drawn)
inactive: K562 2.88 µM | CAKI-1 3.66 µM | TK-10 60.3 µM | SN12C 41.2 µM | SK-MEL-2 10.7 µM | IGROV-1 > 100 µM | MOLT-4 2.64 µM | LOX IMVI 2.92 µM | CCRF-CEM 3.29 µM | 786-0 12.7 µM | NCI-H460 2.96 µM | RPMI-8226 2.78 µM | UO-31 28 µM | SF-539 10.8 µM | A549 14.3 µM | HT-29 3.89 µM

O=C(O/N=C1/CCCC/C1=C\c1ccccc1)c1ccc(Cl)c(Cl)c1
inactive: K562 15.8 µM | CAKI-1 27.3 µM | TK-10 23.2 µM | SN12C 49.8 µM | SK-MEL-2 > 100 µM | IGROV-1 21.5 µM | MOLT-4 13.3 µM | LOX IMVI 20 µM | CCRF-CEM 21.8 µM | 786-0 30.2 µM | SK-OV-3 > 100 µM | NCI-H460 40.3 µM | RPMI-8226 36.2 µM | UO-31 17.9 µM | SF-539 24.5 µM | A549 17.5 µM | HT-29 22.4 µM

CCN1CCC(O)(c2ccc(C)cc2)C(C(=O)c2ccc(C)cc2)C1 (stereo not drawn)
inactive: K562 32.1 µM | CAKI-1 17.2 µM | TK-10 > 44.5 µM | SN12C 14.9 µM | SK-MEL-2 > 100 µM | IGROV-1 > 42.9 µM | MOLT-4 29 µM | LOX IMVI 26.2 µM | CCRF-CEM 18.3 µM | 786-0 13.5 µM | SK-OV-3 > 100 µM | NCI-H460 > 52.6 µM | RPMI-8226 12.9 µM | UO-31 28.2 µM | SF-539 > 43.5 µM | A549 > 75.9 µM | HT-29 19.8 µM

OCC(O)CNc1ccnc2cc(Cl)ccc12 (stereo not drawn)
inactive: K562 > 100 µM | CAKI-1 > 100 µM | TK-10 > 100 µM | SN12C > 100 µM | SK-MEL-2 > 100 µM | IGROV-1 > 100 µM | MOLT-4 > 100 µM | LOX IMVI > 100 µM | CCRF-CEM > 100 µM | 786-0 > 100 µM | SK-OV-3 > 100 µM | NCI-H460 > 100 µM | RPMI-8226 > 100 µM | UO-31 > 100 µM | SF-539 > 100 µM | A549 > 100 µM | HT-29 > 100 µM

COc1cc(C=O)c(-c2c(C=O)ccc3c2OCO3)c(OC)c1OC
inactive: K562 37.2 µM | CAKI-1 31.9 µM | TK-10 > 100 µM | SN12C > 100 µM | SK-MEL-2 > 100 µM | IGROV-1 > 100 µM | MOLT-4 76.2 µM | LOX IMVI 54.6 µM | CCRF-CEM 33.8 µM | 786-0 > 100 µM | SK-OV-3 > 100 µM | NCI-H460 > 100 µM | RPMI-8226 56.5 µM | UO-31 > 100 µM | SF-539 > 100 µM | A549 > 100 µM | HT-29 69.2 µM

O=C(NCc1cccnc1)C1COc2cc(-c3cc(=O)c4ccccc4o3)ccc2O1 (stereo not drawn)
inactive: K562 > 80.2 µM | CAKI-1 > 63.7 µM | TK-10 > 57.9 µM | SN12C 4.34 µM | SK-MEL-2 3.4 µM | IGROV-1 > 66.5 µM | MOLT-4 5.14 µM | LOX IMVI 3.38 µM | CCRF-CEM > 100 µM | 786-0 7.19 µM | SK-OV-3 > 100 µM | NCI-H460 51.4 µM | RPMI-8226 > 100 µM | UO-31 > 43.9 µM | SF-539 3.04 µM | A549 5.79 µM | HT-29 > 87.3 µM

NC1=C(NC(=O)Cc2ccccc2F)C(=O)c2ccccc2C1=O
inactive: K562 > 100 µM | CAKI-1 > 100 µM | TK-10 41.2 µM | SN12C 90.6 µM | SK-MEL-2 14.3 µM | IGROV-1 38.8 µM | MOLT-4 > 100 µM | CCRF-CEM > 100 µM | 786-0 27.1 µM | NCI-H460 47.2 µM | RPMI-8226 > 100 µM | UO-31 92.7 µM | SF-539 26.9 µM | A549 59.3 µM | HT-29 46.7 µM

c1cnn(CN(Cn2cccn2)Cn2cccn2)c1
inactive: K562 > 100 µM | CAKI-1 > 100 µM | TK-10 > 100 µM | SN12C > 100 µM | SK-MEL-2 > 100 µM | MOLT-4 > 100 µM | LOX IMVI > 100 µM | CCRF-CEM > 100 µM | 786-0 > 100 µM | SK-OV-3 > 100 µM | NCI-H460 > 100 µM | RPMI-8226 35.5 µM | UO-31 > 100 µM | SF-539 > 100 µM | A549 > 100 µM

Cc1cc(Cl)ccc1NC(=O)CC/C(CC(=O)C(C)C)=N\NC(=O)C[n+]1ccccc1
inactive: K562 > 100 µM | CAKI-1 > 100 µM | TK-10 > 100 µM | SN12C > 100 µM | SK-MEL-2 > 100 µM | IGROV-1 > 100 µM | MOLT-4 > 100 µM | LOX IMVI > 100 µM | CCRF-CEM > 100 µM | 786-0 > 100 µM | SK-OV-3 > 100 µM | NCI-H460 > 100 µM | RPMI-8226 > 100 µM | UO-31 > 100 µM | SF-539 > 100 µM | A549 > 100 µM | HT-29 > 100 µM

CC(C)CCCC(C)C1CCC2C3CC([N+](=O)[O-])=C4CC(O)CCC4(C)C3CCC12C (stereo not drawn)
inactive: K562 9.62 µM | CAKI-1 24.1 µM | TK-10 21 µM | SN12C 18.2 µM | SK-MEL-2 12.4 µM | IGROV-1 23.8 µM | MOLT-4 24.2 µM | LOX IMVI 19.6 µM | CCRF-CEM 18.2 µM | 786-0 16.9 µM | RPMI-8226 5.02 µM | SF-539 11.5 µM | A549 23.2 µM | HT-29 17.9 µM

C/C(CCn1[nH]c(=O)ccc1=O)=N\N=C(N)N
inactive: K562 > 100 µM | CAKI-1 > 100 µM | TK-10 > 100 µM | SN12C > 100 µM | SK-MEL-2 > 100 µM | IGROV-1 > 100 µM | MOLT-4 > 100 µM | LOX IMVI > 100 µM | CCRF-CEM > 100 µM | 786-0 > 100 µM | NCI-H460 > 100 µM | RPMI-8226 > 100 µM | UO-31 > 100 µM | SF-539 > 100 µM | A549 > 100 µM | HT-29 > 100 µM

Nc1ccc(C(=O)NN2C(=O)C(Cl)C2c2cc(Br)cc(Br)c2O)cc1 (stereo not drawn)
inactive: CAKI-1 3.66 µM | TK-10 32.2 µM | SK-MEL-2 10.6 µM | IGROV-1 13.3 µM | MOLT-4 4.89 µM | LOX IMVI 8.85 µM | CCRF-CEM 5.53 µM | 786-0 8.3 µM | SK-OV-3 11.2 µM | NCI-H460 3.4 µM | RPMI-8226 > 100 µM | UO-31 3.34 µM | SF-539 12.8 µM | A549 14.3 µM | HT-29 34.9 µM
